{"source": "patent US20050049273A1", "about": "“Acridone derivatives as anti-herpesvirus agents” (priority 2003, published 2005)", "key": {"[1]": {"system": "Epstein-Barr Virus (EBV) early antigen", "conditions": "published work; cited from earlier work"}, "HSV-1": {"system": "HSV-1", "experiment": "HSV-1 viral yield-reduction assay in Vero cells", "format": "cell-based, HSV-1 (KOS)", "conditions": "Human alphaherpesvirus 1, Vero, read-out: ED50 HSV-1", "procedure": "(§1) Three types of antiviral assay were used for HSV studies. For plaque-elimination, Vero cells (70000 per cm^2) were infected with 50-100 PFU for 30 minutes with occasional agitation. The inoculate was replaced with medium containing 1% (v/v) fetal calf serum and supplemented with test agents as indicated (see below). After two days of culture, cells were processed using crystal violet staining and plaques were scored by visual examination (FIG. 3). For examination of anti-HSV activity in parallel cultures during biochemical experiments, the progeny virus obtained from cells and from the culture medium at 23 hours post-infection was determined by limiting dilution on Vero cells (FIG. 5A). Macroscopic viral plaques were scored after two days of incubation in medium containing 1% (w/v) carboxymethylcellulose and 0.5% (v/v) fetal calf serum. For ED50 measurements, the concentration of compound that reduced a single-cycle of viral yield by 50% relative to the control and under the specified condition was interpolated from dose-response graphs (FIG. 4, Table 1). Over the course of ten independent experiments, the mean cell-associated viral yield was 180 PFU per cell (SD=80) and 10 PFU per cell (SD=5) for HSV-1 and HSV-2 respectively. The percent viral release (into the culture medium) was 16 (SD=7) and 0.9 (SD=0.6) for HSV-1 and HSV-2 respectively. These virologic parameters were independent of viral load and serum concentration."}, "HSV-2 [2]": {"system": "HSV-2", "experiment": "HSV-2 viral yield-reduction assay in Vero cells", "format": "cell-based, HSV-2 (strain 186)", "conditions": "Human alphaherpesvirus 2, Vero, read-out: ED50 HSV-2", "procedure": "as §1"}, "HCMV [3]": {"system": "HCMV", "experiment": "HCMV plaque-elimination assay in HEL cells", "format": "cell-based, HCMV (Towne)", "procedure": "Virus and cell growth inhibition assays. Established virus culture techniques were used (E.-S. Huang, and T Kowalnick, Diagnosis of human cytomegalovirus infection: laboratory approaches, in Molecular Aspects of Human Cytomegalovirus Diseases (Becker,Y., Daria, G., and Huang, E.-S. eds.), Springer-Verlag, Berlin, pp. 225-255 (1993); Akanitapichat et al., Antiviral Research 45: 123-134 (2000)) but with the following modifications. For the HCMV plaque-elimination assay, HEL cells were plated in standard medium at 60,000 per cm^2 and infected the following day with 50-100 PFU HCMV for 90 minutes with occasional agitation. The inoculate was replaced with maintenance medium containing 5% (v/v) fetal calf serum and test agents as indicated (see below). After an additional 6-10 days of culture, cells were fixed with formal saline (10% formalin in phosphate-buffered saline; PBS), stained with 0.1% (w/v) toluidine blue in PBS and plaques were scored using an inverted light microscope at 40x magnification (FIGS. 2A and 3). For ED50 determination, the value was interpolated from dose-response data and is the concentration of compound that reduced plaque formation by 50% relative to control under the specified condition."}, "[4]": {"experiment": "Vero cell growth inhibition (Sulforhodamine B protein-dye binding)", "format": "cell-based, African green monkey", "conditions": "African green monkey; cell growth inhibition, two days of continuous treatment; read-out: CC50 Vero", "procedure": "(§2) The effect of compounds on host cell replication (CC50), was measured using Sulforhodamine B-staining and the spectrophotometric method originally developed for the NCIs's in vitro anti-cancer drug screening program (P. Skehan et al., J. Natl. Cancer. Inst. 82, 1107-1112 (1990)). The CC50 value is the concentration of compound that inhibited actively replicating cells by 50% of control respectively after two days of continuous treatment."}, "Vero": {"system": "Vero", "experiment": "Vero cell growth inhibition (Sulforhodamine B protein-dye binding)", "format": "cell-based, African green monkey", "procedure": "as §2"}, "[5]": {"experiment": "HEL cell growth inhibition (Sulforhodamine B protein-dye binding)", "format": "cell-based, human", "conditions": "human; cell growth inhibition, two days of continuous treatment", "procedure": "as §2"}, "HEL": {"system": "HEL", "experiment": "HEL cell growth inhibition (Sulforhodamine B protein-dye binding)", "format": "cell-based, human", "conditions": "at 50 μM", "procedure": "as §2"}, "HSV-2 [6]": {"system": "HSV-2", "experiment": "HSV-2 plaque-elimination assay in Vero cells", "format": "cell-based, HSV-2 (strain 186)", "conditions": "100 μM, data not shown", "procedure": "as §1"}, "HCMV [7]": {"system": "HCMV", "experiment": "HCMV cytopathogenicity (CPE) reduction assay in HEL cells", "format": "cell-based, HCMV (Towne)", "text": "(§3) To examine whether pre-treatment of cells influenced anti-HCMV activity of 1-hydroxy-3,7-dimethoxyacridone (2), a cytopathogenicity (CPE) reduction assay was used. The protocol was like the plaque-elimination assay except HEL cells were replicated in test compound (3-12 days or from 1-4 passages) prior to infection, cultures were infected with 500-1000 PFU HCMV and after five days, cells were stained with 0.8% (w/v) crystal violet in 50% ethanol in order to achieve contrast for photography."}, "[8]": {"system": "an assortment of human tumor cell lines", "experiment": "Replication of human tumor cell lines", "format": "cell-based", "conditions": "at 50 μM, data not shown", "procedure": "as §2"}, "HEL Cells": {"system": "HEL Cells", "experiment": "HEL cells replicated in presence of compound for 12 days (morphology, replication rate)", "format": "cell-based, human", "conditions": "0.5 or five micromolar for 12 days (four passages)", "text": "HEL Cells were replicated in the presence of either 0.5 or five micromolar compound 2 for 12 days (four passages) then they were compared to untreated HEL cells as a host for HCMV replication in the presence or absence of the drug. […] Cultures were infected with ten-times the viral load used for plaque assay and were fixed, stained and photographed after seven days of infection (panel B). A detailed method is described in the examples below. The horizontal rows labeled as HEL, HEL (0.5) and HEL (5.0) represent cells cultured in the absence or presence of 0.5 and 5 micromolar 2 respectively. Labeled columns indicate mock-infected (M), infected (I) and treated after viral infection with the same two concentrations of the compound.\nas §3"}}}
{"compound": "5-hydroxynoracronicine", "values": [{"measurement": "concentration blocking activation of EBV early antigen", "setting": "[1]", "value": "submicromolar concentration"}]}
{"compound": "COc1cc(O)c2c(=O)c3cc(OC)ccc3[nH]c2c1", "note": "[Compound 2, 3,7-dimethoxy-1-hydroxy-acridone]", "values": [{"measurement": "EC50", "setting": "HSV-1", "value": "> 50", "unit": "µM"}, {"measurement": "EC50", "setting": "HSV-2 [2]", "value": "> 50", "unit": "µM"}, {"measurement": "EC50", "setting": "HCMV [3]; Human betaherpesvirus 5, HEL, read-out: ED50 HCMV", "value": 1.4, "unit": "µM"}, {"measurement": "selectivity as anti-HCMV agent", "setting": "HCMV [3]; cell replication vs HCMV ED50", "value": "greater than 35 fold"}, {"measurement": "CC50 at 2 days", "setting": "[4]", "value": "> 50", "unit": "µM"}, {"measurement": "inhibition of Vero cell replication", "setting": "Vero; at 50 μM", "value": "inactive"}, {"measurement": "percent inhibition observed at the highest concentration tested, Vero growth", "setting": "Vero; number in parenthesis, highest concentration tested", "value": 7, "unit": "%"}, {"measurement": "CC50 at 2 days", "setting": "[5]", "value": "> 50", "unit": "µM"}, {"measurement": "inhibition of HEL cell replication", "setting": "HEL", "value": "inactive"}, {"measurement": "effect on HSV at highest concentration tested", "setting": "HSV-2 [6]", "value": "without effect on HSV"}, {"measurement": "amelioration of HCMV cytopathogenicity after pre-treatment", "setting": "HCMV [7]; HEL cells cultured 12 days in 0.5 μM before infection", "value": "some amelioration of HCMV cytopathogenicity"}, {"measurement": "protective effect against HCMV cytopathogenicity after pre-treatment", "setting": "HCMV [7]; HEL cells cultured 12 days in 5 μM before infection", "value": "even apparent in the absence of sustained treatment post-infection"}, {"measurement": "protection against HCMV cytopathogenicity", "setting": "HCMV [7]; higher viral loads, with or without pretreatment of HEL cells", "value": "did not protect against HCMV cytopathogenicity unless HEL cells were pretreated prior to viral infection"}, {"measurement": "inhibition of human tumor cell line replication", "setting": "[8]", "value": "inactive"}, {"measurement": "effect on cell morphology and cell viability", "setting": "HEL Cells", "value": "no effect on cell morphology or cell viability"}]}
